Data as given in PubChem BioAssay AID256 (DTP/NCI, 2004).
Values joined by “and” are separate entries in the source; they are usually repeats but may differ in a detail not shown here. Equal values may be shown once. Toxic doses and inconclusive results are not listed. The calls were made as follows: active = survival T/C of 150% or more; inactive = T/C below 125% in these data. Residues, ends and D or L forms follow the SMILES beside them. *: point of attachment. Cbz = O=C(OCc1ccccc1)*

Tested on: CD2F1 mice, L1210 leukemia ip, survival T/C
Assay: NCI In Vivo Anticancer Drug Screen. Data for tumor model L1210 Leukemia (intraperitoneal) in CD2F1 (CDF1) mice
Settings: higher = longer survival
In short: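 Tumor-bearing mice (transplanted tumor) were split into treated and vehicle control groups, and the measured endpoint of each treated group was divided by that of its vehicle controls.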

[1] = endpoint: mean survival time, dose: 100.0 mg/kg/injection, schedule: Q01DX009 (ip), vehicle: saline with Tween-80
[2] = endpoint: mean survival time, dose: 100.0 mg/kg/injection, schedule: Q04DX003 (ip), vehicle: saline with Tween-80
[3] = endpoint: mean survival time, dose: 200.0 mg/kg/injection, schedule: Q01DX009 (ip), vehicle: saline with Tween-80
[4] = endpoint: mean survival time, dose: 200.0 mg/kg/injection, schedule: Q04DX003 (ip), vehicle: saline with Tween-80
[5] = endpoint: mean survival time, dose: 400.0 mg/kg/injection, schedule: Q04DX003 (ip), vehicle: saline with Tween-80
[6] = endpoint: mean survival time, dose: 100.0 mg/kg/injection, schedule: Q01DX001 (ip), vehicle: saline with Tween-80
[7] = endpoint: mean survival time, dose: 200.0 mg/kg/injection, schedule: Q01DX001 (ip), vehicle: saline with Tween-80

Measured: T/C

NCc1cn(C2OC(CO)C(O)C2O)c2ncnc(N)c12 (stereo not given)
inactive: endpoint: mean survival time, dose: 3.13 mg/kg/injection, schedule: Q01DX005 (ip), vehicle: water 118 % of control | endpoint: mean survival time, dose: 6.25 mg/kg/injection, schedule: Q01DX005 (ip), vehicle: water 95 % of control

COc1ccc(C2(O)C3CCC2CC3)cc1 (stereo not given)
inactive: endpoint: mean survival time, dose: 12.5 mg/kg/injection, schedule: Q04DX002 (ip), vehicle: saline with Tween-80 96 % of control | endpoint: mean survival time, dose: 25.0 mg/kg/injection, schedule: Q04DX002 (ip), vehicle: saline with Tween-80 101 % of control | endpoint: mean survival time, dose: 50.0 mg/kg/injection, schedule: Q04DX002 (ip), vehicle: saline with Tween-80 108 % of control

COC1(C)CCC(=O)O1 (stereo not given)
inactive: endpoint: mean survival time, dose: 100.0 mg/kg/injection, schedule: Q04DX003 (ip), vehicle: saline 96 % of control | endpoint: mean survival time, dose: 200.0 mg/kg/injection, schedule: Q04DX003 (ip), vehicle: saline 96 % of control | endpoint: mean survival time, dose: 400.0 mg/kg/injection, schedule: Q04DX003 (ip), vehicle: saline 101 % of control

O=c1nc(NCc2ccco2)ccn1C1OC(CO)C(O)C1O (stereo not given)
inactive: endpoint: median survival time, dose: 12.5 mg/kg/injection, schedule: Q01DX005 (ip), vehicle: water 98 % of control | endpoint: median survival time, dose: 25.0 mg/kg/injection, schedule: Q01DX005 (ip), vehicle: water 106 % of control | endpoint: median survival time, dose: 50.0 mg/kg/injection, schedule: Q01DX005 (ip), vehicle: water 112 % of control | endpoint: median survival time, dose: 100.0 mg/kg/injection, schedule: Q01DX005 (ip), vehicle: water 112 % of control | endpoint: median survival time, dose: 200.0 mg/kg/injection, schedule: Q01DX005 (ip), vehicle: water 108 % of control

O=C(CBr)CC(O)(C(F)(F)F)C(F)(F)F
inactive: endpoint: mean survival time, dose: 12.5 mg/kg/injection, schedule: Q04DX003 (ip), vehicle: saline 98 % of control

Cc1nc2ccccc2c(=O)n1-c1ccccc1Cl
inactive: [1] 100 % of control | [2] 100 % of control | [3] 105 % of control | [4] 102 % of control | endpoint: mean survival time, dose: 400.0 mg/kg/injection, schedule: Q01DX009 (ip), vehicle: saline with Tween-80 117 % of control | [5] 112 % of control

O=C(Cc1ccc([N+](=O)[O-])cc1)Nc1ccc(O)cc1
inactive: [6] 98 % of control | [7] 104 % of control | endpoint: mean survival time, dose: 400.0 mg/kg/injection, schedule: Q01DX001 (ip), vehicle: saline with Tween-80 101 % of control

CCOC(=O)c1ccc(Oc2ncc([N+](=O)[O-])s2)cc1
inactive: endpoint: mean survival time, dose: 4.95 mg/kg/injection, schedule: Q01DX009 (ip), vehicle: saline with Tween-80 100 % of control | endpoint: mean survival time, dose: 7.42 mg/kg/injection, schedule: Q01DX009 (ip), vehicle: saline with Tween-80 95 % of control

CN(C)N=Nc1ccccc1C(=O)NCC(F)(F)F
inactive: endpoint: mean survival time, dose: 18.75 mg/kg/injection, schedule: Q01DX009 (ip), vehicle: Klucel (hydroxypropylcellulose) (HPC) 96 % of control and 106 % of control | endpoint: mean survival time, dose: 37.5 mg/kg/injection, schedule: Q01DX009 (ip), vehicle: Klucel (hydroxypropylcellulose) (HPC) 93 % of control and 106 % of control | endpoint: mean survival time, dose: 75.0 mg/kg/injection, schedule: Q01DX009 (ip), vehicle: Klucel (hydroxypropylcellulose) (HPC) 96 % of control and 100 % of control | endpoint: mean survival time, dose: 150.0 mg/kg/injection, schedule: Q01DX009 (ip), vehicle: Klucel (hydroxypropylcellulose) (HPC) 100 % of control and 102 % of control | endpoint: mean survival time, dose: 300.0 mg/kg/injection, schedule: Q01DX009 (ip), vehicle: Klucel (hydroxypropylcellulose) (HPC) 100 % of control and 103 % of control

COc1ccc2ccccc2c1C1/C(=N/O)CCc2ccccc21 (stereo not given)
inactive: endpoint: mean survival time, dose: 12.5 mg/kg/injection, schedule: Q01DX009 (ip), vehicle: other 98 % of control | endpoint: mean survival time, dose: 25.0 mg/kg/injection, schedule: Q01DX009 (ip), vehicle: other 94 % of control | endpoint: mean survival time, dose: 50.0 mg/kg/injection, schedule: Q01DX009 (ip), vehicle: other 98 % of control | endpoint: mean survival time, dose: 100.0 mg/kg/injection, schedule: Q01DX009 (ip), vehicle: other 98 % of control | endpoint: mean survival time, dose: 200.0 mg/kg/injection, schedule: Q01DX009 (ip), vehicle: other 96 % of control

N#CSCc1cc(Cl)c(CSC#N)c(Cl)c1Cl
inactive: endpoint: mean survival time, dose: 75.0 mg/kg/injection, schedule: Q04DX003 (ip), vehicle: saline 101 % of control | endpoint: mean survival time, dose: 150.0 mg/kg/injection, schedule: Q04DX003 (ip), vehicle: saline 96 % of control | endpoint: mean survival time, dose: 300.0 mg/kg/injection, schedule: Q04DX003 (ip), vehicle: saline 97 % of control

CC12CCC(=O)C=C1CCC1C2C(=O)CC2(C)C1CCC2(O)C(=O)Cn1c(=O)cc[nH]c1=O (stereo not given)
inactive: endpoint: mean survival time, dose: 12.5 mg/kg/injection, schedule: Q04DX003 (ip), vehicle: Klucel (hydroxypropylcellulose) (HPC) 96 % of control | endpoint: mean survival time, dose: 25.0 mg/kg/injection, schedule: Q04DX003 (ip), vehicle: Klucel (hydroxypropylcellulose) (HPC) 96 % of control | endpoint: mean survival time, dose: 50.0 mg/kg/injection, schedule: Q04DX003 (ip), vehicle: Klucel (hydroxypropylcellulose) (HPC) 103 % of control | endpoint: mean survival time, dose: 100.0 mg/kg/injection, schedule: Q04DX003 (ip), vehicle: Klucel (hydroxypropylcellulose) (HPC) 97 % of control | endpoint: mean survival time, dose: 200.0 mg/kg/injection, schedule: Q04DX003 (ip), vehicle: Klucel (hydroxypropylcellulose) (HPC) 97 % of control

Cc1ccc(C(=O)C(F)F)cc1
inactive: endpoint: mean survival time, dose: 50.0 mg/kg/injection, schedule: Q01DX001 (ip), vehicle: saline with Tween-80 100 % of control | [6] 101 % of control | [7] 101 % of control

COc1ccc(C(O)c2nnc(C(O)c3ccc(OC)cc3)nn2)cc1 (stereo not given)
inactive: [2] 86 % of control | [4] 89 % of control | [5] 92 % of control

CC(C)CC(NC(=O)C(C)NC(=O)OCc1ccccc1)C(N)=O (stereo not drawn) (Cbz-Ala-Leu-NH2; configuration not given here)
inactive: [1] 89 % of control

COc1ccc([C@@]23Oc4cc(OC)cc(OC)c4[C@]2(O)[C@H](O)[C@H](C(=O)N(C)C)[C@H]3c2ccccc2)cc1
inactive: endpoint: median survival time, dose: 0.25 mg/kg/injection, schedule: Q01DX009 (ip), vehicle: Klucel (hydroxypropylcellulose) (HPC) 101 % of control | endpoint: median survival time, dose: 0.5 mg/kg/injection, schedule: Q01DX009 (ip), vehicle: Klucel (hydroxypropylcellulose) (HPC) 97 % of control | endpoint: median survival time, dose: 1.0 mg/kg/injection, schedule: Q01DX009 (ip), vehicle: Klucel (hydroxypropylcellulose) (HPC) 102 % of control | endpoint: median survival time, dose: 2.0 mg/kg/injection, schedule: Q01DX009 (ip), vehicle: Klucel (hydroxypropylcellulose) (HPC) 113 % of control | endpoint: median survival time, dose: 4.0 mg/kg/injection, schedule: Q01DX009 (ip), vehicle: Klucel (hydroxypropylcellulose) (HPC) 108 % of control

Clc1ccc2c(c1)Nc1cc(Cl)ccc1C=C2
inactive: [2] 98 % of control | [4] 93 % of control | [5] 87 % of control

Cc1cn(C2CC(O)C(CN=[N+]=[N-])O2)c(=O)[nH]c1=O (stereo not given)
inactive: endpoint: mean survival time, dose: 12.5 mg/kg/injection, schedule: Q01DX005 (ip), vehicle: other 93 % of control | endpoint: mean survival time, dose: 25.0 mg/kg/injection, schedule: Q01DX005 (ip), vehicle: other 96 % of control | endpoint: mean survival time, dose: 50.0 mg/kg/injection, schedule: Q01DX005 (ip), vehicle: other 95 % of control | endpoint: mean survival time, dose: 100.0 mg/kg/injection, schedule: Q01DX005 (ip), vehicle: other 93 % of control | endpoint: mean survival time, dose: 200.0 mg/kg/injection, schedule: Q01DX005 (ip), vehicle: other 93 % of control

Cc1cc(=O)c2ccccc2n1C
inactive: endpoint: mean survival time, dose: 5.0 mg/kg/injection, schedule: Q04DX002 (ip), vehicle: saline 98 % of control | endpoint: mean survival time, dose: 10.0 mg/kg/injection, schedule: Q04DX002 (ip), vehicle: saline 98 % of control | endpoint: mean survival time, dose: 20.0 mg/kg/injection, schedule: Q04DX002 (ip), vehicle: saline 98 % of control

S=c1[nH]c2ccccc2nc1NCc1ccccc1
inactive: endpoint: mean survival time, dose: 100.0 mg/kg/injection, schedule: Q04DX003 (ip), vehicle: other 91 % of control | endpoint: mean survival time, dose: 200.0 mg/kg/injection, schedule: Q04DX003 (ip), vehicle: other 93 % of control | endpoint: mean survival time, dose: 400.0 mg/kg/injection, schedule: Q04DX003 (ip), vehicle: other 93 % of control

O=c1ccn(C2OC(CO)C(O)C2O)c(C2SCCCS2)n1 (stereo not given)
inactive: endpoint: mean survival time, dose: 9.38 mg/kg/injection, schedule: Q01DX005 (ip), vehicle: water 90 % of control | endpoint: mean survival time, dose: 18.75 mg/kg/injection, schedule: Q01DX005 (ip), vehicle: water 93 % of control | endpoint: mean survival time, dose: 37.5 mg/kg/injection, schedule: Q01DX005 (ip), vehicle: water 93 % of control | endpoint: mean survival time, dose: 75.0 mg/kg/injection, schedule: Q01DX005 (ip), vehicle: water 96 % of control | endpoint: mean survival time, dose: 150.0 mg/kg/injection, schedule: Q01DX005 (ip), vehicle: water 96 % of control

Cc1ccc(C)c(C(=O)c2ccccc2C(N)=O)c1
inactive: endpoint: mean survival time, dose: 50.0 mg/kg/injection, schedule: Q01DX009 (ip), vehicle: saline with Tween-80 94 % of control | [1] 92 % of control | [3] 88 % of control

COc1ccc2cc[n+](C)c(Cc3ccc(OC)c(Oc4ccc(Cc5c(OC)ccc6cc[n+](C)cc56)cc4)c3)c2c1
inactive: endpoint: mean survival time, dose: 1.56 mg/kg/injection, schedule: Q04DX003 (ip), vehicle: other 98 % of control | endpoint: mean survival time, dose: 3.13 mg/kg/injection, schedule: Q04DX003 (ip), vehicle: other 102 % of control | endpoint: mean survival time, dose: 6.25 mg/kg/injection, schedule: Q04DX003 (ip), vehicle: other 98 % of control and 103 % of control
